The text below walks through data of US12582661B2, “Synthesis and application of class of respiratory syncytial virus inhibitors” (SHANGHAI ARK BIOPHARMACEUTICAL CO., LTD., priority 2020, dated 2026).

A short description of series [1]: Pharmacokinetics in ICR mice, plasma drug concentrations. It counts as in vivo. Conditions: for AUC(0-inf) / Cmax / Tmax / clearance / half-life / AUC(0-t) / Vd: ICR, mouse plasma; for AUC(0-t): read-out: AUC0-12; for Vd: read-out: Vss; for concentration at 0.083 h / concentration at 0.25 h / concentration at 0.5 h / concentration at 1 h / concentration at 2 h / concentration at 4 h / concentration at 8 h / concentration at 12 h / concentration at 24 h: mouse, plasma; for concentration at 0.083 h / concentration at 0.25 h / concentration at 0.5 h / concentration at 1 h / concentration at 2 h / concentration at 4 h / concentration at 8 h / concentration at 12 h / concentration at 24 h / F: ICR mice; for F: p.o. 10 mg/kg vs i.v. 2 mg/kg. The procedure: The pharmacokinetics were further tested of Example 4 and Example 7 disclosed herein and Example 61-1 (Comparative Example 1) in patent WO2013020993 in ICR mice. A single intravenous injection (dose of 2 mg/kg) and a single oral administration (dose of 10 mg/kg) were taken respectively. Blood collection point: before administration, 5 min, 15 min, 30 min, 1 h, 2 h, 4 h, 8 h, 12 h, 24 h after administration. The same method was applied to the pharmacokinetics of the above Comparative Example 1 in ICR mice, with a single intravenous injection (dose of 2 mg/kg) and a single oral administration (dose of 10 mg/kg) respectively.

The test system of a further series is RSV Long strain. Briefly: Virus cytopathic effect (CPE) assay, anti-RSV activity in HEp-2 cells. The class given is cell-based. The note with it: human respiratory syncytial virus, 96 h, RSV Long strain 0.5 MOI, CellTiter-Glo after 4 days. Here is the method:
HEp-2 cells (ATCC CCL-23, human laryngeal carcinoma epithelial cells) were purchased from American Type Culture Collection and the culture conditions were as follows: 1% double antibody was added to Dulbecco modified Eagle medium (DMEM) medium containing 10% fetal bovine serum (FBS), and maintained in a 5% CO2 incubator and cultured at 37° C. To evaluate the anti-RSV activity of compounds, cells were seeded in a 96-well plate at a density of 5×10^3 cells/well in Hyclone™ (DMEM) containing 10% fetal bovine serum (FBS). The following day, cells were infected with a 0.5 MOI of RSV Long strain (ATCC) in the presence of 3-fold serial dilutions of compound to a total volume of 100 μL per well. The cell viability was evaluated by the cell counting kit CellTiter-Glo Reagent after 4 days. The fluorescence signal was read on a multi-mode microplate reader and the 50% effective concentration EC50 was determined by the fluorescence value. The RSV inhibition activities of the compounds involved in Examples 1 to 15 disclosed herein were evaluated according to the above method, and the results are shown in Table 3 below.

In series [2] the test system is respiratory syncytial virus. The note with it: cited from earlier work.

pIC50: −log10 of the molar value. Read-outs that look alike come from different tables or passages of the source.

For the molecule `NC1(CNc2nc(N3CCS(=O)(=O)c4ccccc4C3)nc3ccc(C(F)F)cc23)COC1` [Example 7, 4-(4-(((3-Aminooxetan-3-yl)methyl)amino)-6-(difluoromethyl)quinazolin-2-yl)-2,3,4,5-tetrahydrobenzo[f][1,4]thiazepine 1,1-dioxide], in series [1] (iv, i.v. 2 mg/kg), the AUC(0-inf) amounted to 579 ng·h/mL, the peak level (Cmax) was 815 ng/mL, the Tmax turned out to be 0.08 h and the clearance was 57.6 mL/min/kg. Besides, in series [1] (iv, i.v. 2 mg/kg), the half-life was 1.6 h, the AUC(0-t) was determined as 573 ng·h/mL, the Vd came to 3.33 L/kg and the concentration at 0.083 h was found to be 815 ng/mL. Also, in series [1] (iv, i.v. 2 mg/kg), the concentration at 0.25 h was 540 ng/mL, the concentration at 0.5 h amounted to 335 ng/mL, the concentration at 1 h came out at 128 ng/mL and the concentration at 2 h worked out at 35 ng/mL. Moreover, in series [1] (iv, i.v. 2 mg/kg), the concentration at 4 h amounted to 12.3 ng/mL, the concentration at 8 h turned out to be 2.7 ng/mL, the concentration at 12 h is 1.3 ng/mL and the concentration at 24 h came to 1.5 ng/mL. Further, in series [1] (po, p.o. 10 mg/kg), the total exposure AUC(0-inf) amounted to 481 ng·h/mL, the peak level (Cmax) was 287 ng/mL, the Tmax is 0.5 h and the half-life is 1.3 h. Besides, in series [1] (po, p.o. 10 mg/kg), the AUC(0-t) was 476 ng·h/mL, the concentration at 0.083 h is 233 ng/mL, the concentration at 0.25 h is 262 ng/mL and the concentration at 0.5 h came to 287 ng/mL. In series [1] (po, p.o. 10 mg/kg), this molecule gave a concentration at 1 h of 180 ng/mL, a concentration at 2 h of 50.1 ng/mL, a concentration at 4 h of 16.7 ng/mL and a concentration at 8 h of 4.6 ng/mL. Besides, in series [1] (po, p.o. 10 mg/kg), the concentration at 12 h is 2.9 ng/mL and the concentration at 24 h was 1.4 ng/mL. The molecule also gave a F in series [1] of 16.62%. Further, the pIC50 in the series on RSV Long strain is 8.39.
On to `Cc1ccc2nc(N3CCS(=O)(=O)c4ccccc4C3)nc(N3CCC(O)(CN)C3)c2c1` (stereo not shown) [Example 9, 4-(4-(3-(Aminomethyl)-3-hydroxypyrrolidin-1-yl)-6-methylquinazolin-2-yl)-2,3,4,5-tetrahydrobenzo[f][1,4]thiazepine 1,1-dioxide], for which the pIC50 in the series on RSV Long strain is 9.05.
Turning to `Cc1ccc2nc(N3CCS(=O)(=O)c4ccccc4C3)nc(N[C@H]3CNC[C@@H]3O)c2c1` [Example 14, 4-(4-(((3S,4S)-4-hydroxypyrrolidin-3-yl)amino)-6-methylquinazolin-2-yl)-2,3,4,5-tetrahydrobenzo[f][1,4]thiazepine 1,1-dioxide], the pIC50 in the series with RSV Long strain was 8.89. The pIC50 values of the last two molecules are within 0.2 log units of each other.
In the series on RSV Long strain, `Cc1ccc2nc(N3CCS(=O)(=O)c4ccccc4C3)nc(N3CC(CN)C3)c2c1` [Example 11, 4-(4-(3-(Aminomethyl)azetidin-1-yl)-6-methylquinazolin-2-yl)-2,3,4,5-tetrahydrobenzo[f][1,4]thiazepine 1,1-dioxide] gave a pIC50 of 8.92.
As to `Cc1ccc2nc(N3CCS(=O)(=O)c4ccccc4C3)nc(N3CC(CN)(CO)C3)c2c1` [Example 3, 4-(4-(3-(Aminomethyl)-3-(hydroxymethyl)azetidin-1-yl)-6-methylquinazolin-2-yl)-2,3,4,5-tetrahydrobenzo[f][1,4]thiazepine 1,1-dioxide], the pIC50 in the series on RSV Long strain is 8.30.
`CC(C)C(=O)OC[C@@]1(CCl)O[C@@H](n2ccc(N)nc2=O)[C@H](F)[C@@H]1OC(=O)C(C)C` [ALS-8176]: the “volunteers with reduced respiratory syncytial virus load” value in series [2] is “more than 85%”.
`Cc1ccc2nc(N3CCS(=O)(=O)c4ccccc4C3)nc(N3CC(O)(CN)C3)c2c1` [Example 10, 4-(4-(3-(Aminomethyl)-3-hydroxyazetidin-1-yl)-6-methylquinazolin-2-yl)-2,3,4,5-tetrahydrobenzo[f][1,4]thiazepine 1,1-dioxide] gave a pIC50 with RSV Long strain of 8.48.
`Cc1ccc2nc(N3CCS(=O)(=O)c4ccccc4C3)nc(NCC3(O)CNC3)c2c1` [Example 8, 4-(4-(((3-Hydroxyazetidin-3-yl)methyl)amino)-6-methylquinazolin-2-yl)-2,3,4,5-tetrahydrobenzo[f][1,4]thiazepine 1,1-dioxide] gave a pIC50 in the series on RSV Long strain of 8.54. The pIC50 values of the last two molecules are within 0.2 log units of each other.
With `Cc1ccc2nc(N3CCS(=O)(=O)c4ccccc4C3)nc(N3CC(N)C3)c2c1` [Example 1, 4-(4-(3-Aminoazetidin-1-yl)-6-methylquinazolin-2-yl)-2,3,4,5-tetrahydrobenzo[f][1,4]thiazepine 1,1-dioxide], the pIC50 in the series with RSV Long strain is 8.36.
In the case of `NCC1(CO)CN(c2nc(N3CCS(=O)(=O)c4ccccc4C3)nc3ccc(C(F)F)cc23)C1` [Example 5, 4-(4-(3-(Aminomethyl)-3-(hydroxymethyl)azetidin-1-yl)-6-(difluoromethyl)quinazolin-2-yl)-2,3,4,5-tetrahydrobenzo[f][1,4]thiazepine 1,1-dioxide], the pIC50 with RSV Long strain was 8.10.
The same measure, in the same setting: next, `O=S1(=O)CCN(c2nc(NC3CNC3)c3cc(C(F)F)ccc3n2)Cc2ccccc21` [Example 6, 4-(4-(Azetidin-3-ylamino)-6-(difluoromethyl)quinazolin-2-yl)-2,3,4,5-tetrahydrobenzo[f][1,4]thiazepine 1,1-dioxide]: 8.31; `Cc1ccc2nc(N3CCS(=O)(=O)c4ccccc4C3)nc(NC3CC4(CNC4)C3)c2c1` [Example 15, 4-(4-((2-azaspiro[3.3]heptan-6-yl)amino)-6-methylquinazolin-2-yl)-2,3,4,5-tetrahydrobenzo[f][1,4]thiazepine 1,1-dioxide]: 8.43.
For the molecule `NC1CN(c2nc(N3CCS(=O)(=O)c4ccccc4C3)nc3ccc(C(F)F)cc23)C1` [Example 4, 4-(4-(3-Aminoazetidin-1-yl)-6-(difluoromethyl)quinazolin-2-yl)-2,3,4,5-tetrahydrobenzo[f][1,4]thiazepine 1,1-dioxide], in series [1] (iv, i.v. 2 mg/kg), the AUC(0-inf) was 1010 ng·h/mL, the Cmax was 82.4 ng/mL, the Tmax worked out at 4 h and the clearance is 32.8 mL/min/kg. For the same molecule, in series [1] (iv, i.v. 2 mg/kg), the half-life is 3.4 h, the AUC(0-t) amounted to 1010 ng·h/mL, the Vd was determined as 13.1 L/kg and the concentration at 0.083 h was found to be 38 ng/mL. In series [1] (iv, i.v. 2 mg/kg), this molecule showed a concentration at 0.25 h of 38.4 ng/mL, a concentration at 0.5 h of 30.7 ng/mL, a concentration at 1 h of 34.5 ng/mL and a concentration at 2 h of 43.9 ng/mL. In series [1] (iv, i.v. 2 mg/kg), this molecule registered a concentration at 4 h of 82.4 ng/mL, a concentration at 8 h of 62.8 ng/mL and a concentration at 24 h of 1.7 ng/mL. In addition, in series [1] (po, p.o. 10 mg/kg), the AUC(0-inf) was 3780 ng·h/mL, the highest level (Cmax) was 505 ng/mL, the Tmax came out at 2 h and the half-life was 3.3 h. Moreover, in series [1] (po, p.o. 10 mg/kg), the AUC(0-t) is 3760 ng·h/mL, the concentration at 0.083 h came out at 49.7 ng/mL, the concentration at 0.25 h turned out to be 274 ng/mL and the concentration at 0.5 h stood at 407 ng/mL. In series [1] (po, p.o. 10 mg/kg), this molecule showed a concentration at 1 h of 432 ng/mL, a concentration at 2 h of 505 ng/mL, a concentration at 4 h of 380 ng/mL and a concentration at 8 h of 128 ng/mL. Moreover, the concentration at 24 h in series [1] (po, p.o. 10 mg/kg) worked out at 5.4 ng/mL. In addition, in series [1], the F was determined as 74.6%. Also, in the series with RSV Long strain, the pIC50 was 8.15.
Take `Cc1ccc2nc(N3CCS(=O)(=O)c4ccccc4C3)nc(NC3CC(N)C3)c2c1` (stereo not shown) [Example 12, 4-(4-((3-Aminocyclobutyl)amino)-6-methylquinazolin-2-yl)-2,3,4,5-tetrahydrobenzo[f][1,4]thiazepine 1,1-dioxide]: the pIC50 with RSV Long strain is 8.77.
As to `Cc1ccc2nc(N3CCS(=O)(=O)c4ccccc4C3)nc(NCC3CNC3)c2c1` [Example 2, 4-(4-((Azetidin-3-ylmethyl)amino)-6-methylquinazolin-2-yl)-2,3,4,5-tetrahydrobenzo[f][1,4]thiazepine 1,1-dioxide], the negative logarithm of the IC50 (pIC50) in the series with RSV Long strain is 8.20.
Molecule `Cc1ccc2nc(N3CCS(=O)(=O)c4ccccc4C3)nc(N3CC(N)(CN)C3)c2c1` [Example 13, 4-(4-(3-Amino-3-(aminomethyl)azetidin-1-yl)-6-methylquinazolin-2-yl)-2,3,4,5-tetrahydrobenzo[f][1,4]thiazepine 1,1-dioxide] gave a pIC50 in the series with RSV Long strain of 8.02.
